Turning to `CC/C=C(\C)C1(CC)C(=O)NC(=O)NC1=O`, the logP (in general, the decadic logarithm of the partition coefficient of the neutral form, usually between octanol and water) was 1.65.

The molecule `C/C=C(\C)C1(C)C(=O)NC(=O)NC1=O` showed a logP of 0.65.

Molecule `C/C=C(/C)C1(CC)C(=O)NC(=O)NC1=O` registered a logP of 1.15.

For `CC/C=C(/C)C1(CCC)C(=O)NC(=O)NC1=O`, the logP came to 2.15.

The molecule `C=C(C)C1(CCC)C(=O)NC(=O)NC1=O` had a logP of 1.15.

`C=C(C)C1(CC(C)C)C(=O)NC(=O)NC1=O` had a logP of 1.45.

The molecule `CCCC=C(CC)C1(CC)C(=O)NC(=O)NC1=O` gave a logP of 2.65.

Molecule `C=C(C)C1(C)C(=O)NC(=O)NC1=O` yielded a logP of 0.15.

In turn, `C=C(C)C1(CCCC)C(=O)NC(=O)NC1=O` came in with a logP of 1.65.

With `C/C=C(\CC)C1(C(C)C)C(=O)NC(=O)NC1=O`, the logP turned out to be 1.95.

For the molecule `CC=C(C(C)C)C1(C)C(=O)NC(=O)NC1=O`, the logP stood at 1.45.

In the case of `CC=C(CCCC)C1(CCC)C(=O)NC(=O)NC1=O`, the logP came to 2.65.

On to `CC=C(CCCC)C1(C)C(=O)NC(=O)NC1=O`, for which the logP is 2.15.

On to `C/C=C(\C)C1(CCC)C(=O)NC(=O)NC1=O`, for which the logP amounted to 1.65.

Molecule `CC=C(CCC)C1(CC)C(=O)NC(=O)NC1=O` showed a logP of 2.15.

`C=C(C)C1(CCCCC)C(=O)NC(=O)NC1=O`: the logP was found to be 2.15.

As for `C/C=C(\CC)C1(C)C(=O)NC(=O)NC1=O`, the logP amounted to 1.15.

`C=C(C)C1(CCC(C)C)C(=O)NC(=O)NC1=O` registered a logP of 1.95.

`C/C=C(\CC)C1(CC)C(=O)NC(=O)NC1=O` registered a logP of 1.65.

`C=CCC1(/C(C)=C/C)C(=O)NC(=O)NC1=O` returned a logP of 2.15.

`CC=C(CCC)C1(C)C(=O)NC(=O)NC1=O` yielded a logP of 1.65.

Molecule `CC/C=C(\C)C1(C)C(=O)NC(=O)NC1=O` gave a logP of 1.15.

As to `CC/C=C(\C)C1(C(C)C)C(=O)NC(=O)NC1=O`, the logP was determined as 1.95.

Turning to `C/C=C(\CC)C1(CCC)C(=O)NC(=O)NC1=O`, the logP was found to be 2.15.

In the case of `C=C(C)C1(CC)C(=O)NC(=O)NC1=O`, the lipophilicity (logP) amounted to 0.65.

The values above are taken from the SangsterLogP compilation.
